Experimental data from US20110313041A1 (priority 2008, published 2011).
Read-outs that look alike come from different tables or passages of the source.

Assays:
[1] = treatment of weakness in metabolic activity with pantothenic acid-CoA; format: in vivo, human; details: intake in a large amount
Source text: The invention is based of the surprising finding of Mr.
Muscle weakness and pain, weakness, respiratory weakness, mental exhaustion, and gastric problems have mainly been treated with pantothenic acid-CoA,-buk, vitamins and amino acids.
After improvement and discontinuation of the treatment the symptoms returned after a short interval. Ultimately, the problems could be reduced and neutralised through re-treatment. Only with the normalization of the function of the digestive tract, the absorption of pantothenic acid-CoA from food in the stomach could be reproduced, and the treatment was dispensable.
Disturbed gastric functions and/or depletion of mitochondrial reserves in Myasthenia, autism, chronic fatigue syndrome appears in the fading of the yellowing of the urine. […] The current optimum, the proof of the success of the pantothenic acid-CoA treatment is reached when harmless acetylcholine surplus reactions responses in the bladder, stomach or intestines occur.

[2] = system: smooth muscles of lachrymal gland, bladder, stomach, intestine; assay: response experiment to sublingual/buccal Panthenol under Acetylcholinersterase-inhibition; format: in vivo, human; details: 2 g Panthenol Tbl. sublingual/buccal
Procedure: Immediately afterwards, response experiment to sublingual/buccal applied 2 g-Panthenol Tbl. was executed. […] After its decay and continuation of the breakfast with bread the same reactions in bladder, womb and bowel 10 minutes later repeated with time shortened duration.
Acetylcholine, the natural excitation transmitter from the nerve to the muscle effects striped muscles in concentrations of 10^−6 g/l, smooth muscles already in concentrations of 10^−16 g/l. (4) These “adverse” reactions are contractions of smooth muscles of lachrymal gland, bladder, stomach, intestine, caused by there suddenly synthesized acetylcholine, which exceeds the Response threshold that is 10^−16 grams per liter of acetylcholine in smooth muscles: • a) within 10 minutes of ingestion into the stomach and after the end of reaction; • b) within 10 minutes of sublingual/buccal absorption of 2000 mg Tbl Panthenol, while Acetylcholinersterase-inhibition amongst 140 mg Neostgminbromid is existing. […] (13)

[3] = cited from earlier work; for side effects: Alzheimer's disease patients; for condition of Alzheimer's disease patients: after administration
[4] = target: T1, ACH Esterase (Homo sapiens, UniProt P22303); details: 30 mg PB, soldiers, cited from earlier work
T1 construct: endogenous in cells
T1 sequence (P22303 32-614): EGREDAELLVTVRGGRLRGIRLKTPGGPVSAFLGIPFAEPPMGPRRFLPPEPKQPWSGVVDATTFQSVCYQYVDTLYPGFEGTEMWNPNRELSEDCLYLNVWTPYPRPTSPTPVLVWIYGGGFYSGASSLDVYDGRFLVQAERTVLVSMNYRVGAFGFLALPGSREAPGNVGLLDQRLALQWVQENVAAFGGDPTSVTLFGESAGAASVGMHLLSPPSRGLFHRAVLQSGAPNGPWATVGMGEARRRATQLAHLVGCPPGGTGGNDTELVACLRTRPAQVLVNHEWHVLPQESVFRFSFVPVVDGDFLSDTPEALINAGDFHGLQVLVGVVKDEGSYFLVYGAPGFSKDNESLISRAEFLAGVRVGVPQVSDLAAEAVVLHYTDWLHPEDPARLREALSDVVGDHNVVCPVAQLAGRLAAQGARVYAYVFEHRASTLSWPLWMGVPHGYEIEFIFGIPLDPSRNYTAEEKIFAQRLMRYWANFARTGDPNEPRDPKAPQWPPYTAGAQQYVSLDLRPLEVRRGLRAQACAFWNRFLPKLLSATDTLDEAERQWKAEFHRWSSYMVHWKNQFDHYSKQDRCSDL

Compound | effect on symptoms caused by weakness in metabolic activity [1] | side effects [3] | condition of Alzheimer's disease patients [3] | also measured
CC(C)(CO)[C@@H](O)C(=O)NCCC(=O)O [pantothenic acid, Pantothenic acid] | beneficial effect | – | – | –
CC(C)(CO)[C@@H](O)C(=O)NCCCO [Panthenol] | – | – | – | reaction to first application of Panthenol ([2]; first application, under 140 mg Neostigminbromid): the same adverse reaction started with a similar duration; reaction to anew application of Panthenol ([2]; second application after continued breakfast): the same adverse reaction started, but delayed and lasted for less
Nc1c2c(nc3ccccc13)CCCC2 [Tacrine] | – | nausea, vomiting, diarrhea and cramps | improvement of their condition | –
pantothenic acid-CoA | beneficial effect | – | – | –
CN(C)C(=O)Oc1ccc[n+](C)c1 [Pyridostigminbromid] | – | – | – | adverse cholinergic reactions [4]: nausea, vomiting, stomach cramps, diarrhea, urination, increased salivation, sweating and muscle spasm; adverse cholinergic reactions ([4]; listed as pyridostigmine bromide): nausea, vomiting, abdominal Cramps, diarrhea, increased salivation, sweating, muscle Cramps
CCN(C)C(=O)Oc1cccc([C@H](C)N(C)C)c1 [Rivastigmin] | – | nausea, vomiting, diarrhea and cramps | improvement of their condition | –
